Reference: PubChem BioAssay AID1963867 (Molecular Pharmacology Branch, DTP, NCI, 2024)
Calls of active or inactive are those of the source. Rule for the calls: active = viability on the fitted dose curve at most 10% of control; inactive = the rest.

Tested on: KRAS-mutant PDC tumor spheroid with HUVEC/MSC, viability
Experiment: Anticancer human tumor 327498-153-R-J2-PDC patient-derived uterine carcinosarcoma cell line growth inhibition [KRAS2]
Settings: for IC50: curve of first compound; for viability, T/C: stronger effect = lower value
Summary of the method: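 Combination screen of spheroid viability in tumor-cell co-cultures with endothelial (HUVEC) and mesenchymal stem cell stroma. Each agent was tested in half-log dilutions, topping at clinical Cmax or at 10 microM without a known Cmax.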

[1] = second compound 0.1 µM, first compound 0.0316 µM
[2] = second compound 0.1 µM, first compound 0.1 µM
[3] = second compound 0.1 µM, first compound 0.316 µM
[4] = second compound 0.1 µM, first compound 1 µM
[5] = second compound 0.1 µM, first compound 3.16 µM
[6] = second compound 0.1 µM, first compound 10 µM
[7] = second compound 0.316 µM, first compound 0.0316 µM
[8] = second compound 0.316 µM, first compound 0.1 µM
[9] = second compound 0.316 µM, first compound 0.316 µM
[10] = second compound 0.316 µM, first compound 1 µM
[11] = second compound 0.316 µM, first compound 3.16 µM
[12] = second compound 0.316 µM, first compound 10 µM
[13] = second compound 1 µM, first compound 0.0316 µM
[14] = second compound 1 µM, first compound 0.1 µM
[15] = second compound 1 µM, first compound 0.316 µM
[16] = second compound 1 µM, first compound 1 µM
[17] = second compound 1 µM, first compound 3.16 µM
[18] = second compound 1 µM, first compound 10 µM
[19] = second compound 3.16 µM, first compound 0.0316 µM
[20] = second compound 3.16 µM, first compound 0.1 µM
[21] = second compound 3.16 µM, first compound 0.316 µM
[22] = second compound 3.16 µM, first compound 1 µM
[23] = second compound 3.16 µM, first compound 3.16 µM
[24] = second compound 3.16 µM, first compound 10 µM
[25] = second compound 10 µM, first compound 0.0316 µM
[26] = second compound 10 µM, first compound 0.1 µM
[27] = second compound 10 µM, first compound 0.316 µM
[28] = second compound 10 µM, first compound 1 µM
[29] = second compound 10 µM, first compound 3.16 µM
[30] = second compound 10 µM, first compound 10 µM
[31] = second compound 0.1 µM, first compound 0.000316 µM
[32] = second compound 0.1 µM, first compound 0.001 µM
[33] = second compound 0.1 µM, first compound 0.00316 µM
[34] = second compound 0.1 µM, first compound 0.01 µM
[35] = second compound 0.316 µM, first compound 0.000316 µM
[36] = second compound 0.316 µM, first compound 0.001 µM
[37] = second compound 0.316 µM, first compound 0.00316 µM
[38] = second compound 0.316 µM, first compound 0.01 µM
[39] = second compound 1 µM, first compound 0.000316 µM
[40] = second compound 1 µM, first compound 0.001 µM
[41] = second compound 1 µM, first compound 0.00316 µM
[42] = second compound 1 µM, first compound 0.01 µM
[43] = second compound 3.16 µM, first compound 0.000316 µM
[44] = second compound 3.16 µM, first compound 0.001 µM
[45] = second compound 3.16 µM, first compound 0.00316 µM
[46] = second compound 3.16 µM, first compound 0.01 µM
[47] = second compound 10 µM, first compound 0.000316 µM
[48] = second compound 10 µM, first compound 0.001 µM
[49] = second compound 10 µM, first compound 0.00316 µM
[50] = second compound 10 µM, first compound 0.01 µM
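Throughout, for IC50: spheroids exposed to agents for seven days before reading.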
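Throughout, for viability, T/C: spheroids exposed to agents for seven days before reading; 100% = DMSO vehicle wells so lower means fewer viable cells.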

## COC(=O)c1ccc2c(C(=Nc3ccc(N(C)C(=O)CN4CCN(C)CC4)cc3)c3ccccc3)c(O)[nH]c2c1 + C=CC(=O)N1CCN(c2nc(OCC3CCCN3C)nc3c2CCN(c2cccc4cccc(C)c24)C3)CC1CC#N
Second compound 0.0316 µM
  IC50: 142 nM
Second compound 0.1 µM
  IC50: < 31.6 nM
Second compound 0.316 µM
  IC50: < 31.6 nM
Second compound 1 µM
  IC50: < 31.6 nM
Second compound 3.16 µM
  IC50: < 31.6 nM
Second compound 0.0316 µM, first compound 0.0316 µM
  viability, T/C: 52.8%
Second compound 0.0316 µM, first compound 0.1 µM
  viability, T/C: 54.7%
Second compound 0.0316 µM, first compound 0.316 µM
  viability, T/C: 42.9%
Second compound 0.0316 µM, first compound 1 µM
  viability, T/C: 23.4%
Second compound 0.0316 µM, first compound 3.16 µM
  viability, T/C: 8.28%
Second compound 0.0316 µM, first compound 10 µM
  viability, T/C: 7.36%
[1]
  viability, T/C: 45.9%
[2]
  viability, T/C: 42%
[3]
  viability, T/C: 37.1%
[4]
  viability, T/C: 13%
[5]
  viability, T/C: 7.74%
[6]
  viability, T/C: 5.84%
[7]
  viability, T/C: 49.2%
[8]
  viability, T/C: 41.6%
[9]
  viability, T/C: 29.6%
[10]
  viability, T/C: 14.4%
[11]
  viability, T/C: 5.46%
[12]
  viability, T/C: 4%
[13]
  viability, T/C: 38.6%
[14]
  viability, T/C: 21.5%
[15]
  viability, T/C: 16.4%
[16]
  viability, T/C: 9.18%
[17]
  viability, T/C: 0.69%
[18]
  viability, T/C: 1.72%
[19]
  viability, T/C: 0.33%
[20]
  viability, T/C: 0.16%
[21]
  viability, T/C: 0.15%
[22]
  viability, T/C: 0.12%
[23]
  viability, T/C: 1.49%
[24]
  viability, T/C: 0.32%

## CC1(C)CCC(CN2CCN(c3ccc(C(=O)NS(=O)(=O)c4ccc(NCC5CCOCC5)c([N+](=O)[O-])c4)c(Oc4cnc5[nH]ccc5c4)c3)CC2)=C(c2ccc(Cl)cc2)C1 + COc1cc2nc(C)nc(NC(C)c3cc(N)cc(C(F)(F)F)c3)c2cc1OC1CCOC1
Second compound 0.1 µM
  IC50: 3200 nM
Second compound 0.316 µM
  IC50: 2270 nM
Second compound 1 µM
  IC50: 2010 nM
Second compound 3.16 µM
  IC50: 1490 nM
Second compound 10 µM
  IC50: 178 nM
[1]
  viability, T/C: 78.8%
[2]
  viability, T/C: 80.5%
[3]
  viability, T/C: 76.9%
[4]
  viability, T/C: 77.3%
[5]
  viability, T/C: 50.5%
[6]
  viability, T/C: 4.9%
[7]
  viability, T/C: 74.3%
[8]
  viability, T/C: 64.3%
[9]
  viability, T/C: 75.4%
[10]
  viability, T/C: 71.1%
[11]
  viability, T/C: 41.5%
[12]
  viability, T/C: 1.82%
[13]
  viability, T/C: 74.1%
[14]
  viability, T/C: 72%
[15]
  viability, T/C: 65.9%
[16]
  viability, T/C: 67.8%
[17]
  viability, T/C: 38.8%
[18]
  viability, T/C: 0.73%
[19]
  viability, T/C: 65.2%
[20]
  viability, T/C: 65.3%
[21]
  viability, T/C: 66.7%
[22]
  viability, T/C: 61.5%
[23]
  viability, T/C: 28.4%
[24]
  viability, T/C: 3.34%
[25]
  viability, T/C: 53%
[26]
  viability, T/C: 54.6%
[27]
  viability, T/C: 42.1%
[28]
  viability, T/C: 39.9%
[29]
  viability, T/C: 11.5%
[30]
  viability, T/C: 0.44%

## CC1OCC2(CCN(c3cnc(Sc4ccnc(N)c4Cl)c(N)n3)CC2)C1N (centres undefined) + C=CC(=O)N1CCN(c2nc(=O)n(-c3c(C)ccnc3C(C)C)c3nc(-c4c(O)cccc4F)c(F)cc23)C(C)C1
Second compound 0.1 µM
  IC50: < 31.6 nM
Second compound 0.316 µM
  IC50: < 31.6 nM
Second compound 1 µM
  IC50: < 31.6 nM
Second compound 3.16 µM
  IC50: < 31.6 nM
Second compound 10 µM
  IC50: < 31.6 nM
[1]
  viability, T/C: 44.1%
[2]
  viability, T/C: 34.8%
[3]
  viability, T/C: 25.5%
[4]
  viability, T/C: 25.2%
[5]
  viability, T/C: 21%
[6]
  viability, T/C: 16.3%
[7]
  viability, T/C: 41.1%
[8]
  viability, T/C: 33.4%
[9]
  viability, T/C: 26.4%
[10]
  viability, T/C: 23.3%
[11]
  viability, T/C: 19.1%
[12]
  viability, T/C: 15.9%
[13]
  viability, T/C: 40.6%
[14]
  viability, T/C: 31.6%
[15]
  viability, T/C: 31.7%
[16]
  viability, T/C: 22.9%
[17]
  viability, T/C: 17.8%
[18]
  viability, T/C: 16.9%
[19]
  viability, T/C: 41.8%
[20]
  viability, T/C: 37.4%
[21]
  viability, T/C: 28.7%
[22]
  viability, T/C: 23.2%
[23]
  viability, T/C: 22.8%
[24]
  viability, T/C: 19.4%
[25]
  viability, T/C: 33.3%
[26]
  viability, T/C: 28%
[27]
  viability, T/C: 23.1%
[28]
  viability, T/C: 21.1%
[29]
  viability, T/C: 16.1%
[30]
  viability, T/C: 16.9%

## CN(C)C/C=C/C(=O)Nc1cc2c(Nc3ccc(F)c(Cl)c3)ncnc2cc1O[C@H]1CCOC1 + CC1OCC2(CCN(c3cnc(Sc4ccnc(N)c4Cl)c(N)n3)CC2)C1N
Second compound 0.1 µM
  IC50: > 100 nM
Second compound 0.316 µM
  IC50: > 100 nM
Second compound 1 µM
  IC50: > 100 nM
Second compound 3.16 µM
  IC50: < 0.316 nM
Second compound 10 µM
  IC50: 0.428 nM
[31]
  viability, T/C: 75.6%
[32]
  viability, T/C: 82%
[33]
  viability, T/C: 71%
[34]
  viability, T/C: 71%
[1]
  viability, T/C: 69.3%
[2]
  viability, T/C: 56.4%
[35]
  viability, T/C: 62.8%
[36]
  viability, T/C: 60.4%
[37]
  viability, T/C: 53.5%
[38]
  viability, T/C: 53.1%
[7]
  viability, T/C: 51.2%
[8]
  viability, T/C: 53%
[39]
  viability, T/C: 106%
[40]
  viability, T/C: 109%
[41]
  viability, T/C: 103%
[42]
  viability, T/C: 104%
[13]
  viability, T/C: 99%
[14]
  viability, T/C: 91.7%
[43]
  viability, T/C: 44%
[44]
  viability, T/C: 42.1%
[45]
  viability, T/C: 37%
[46]
  viability, T/C: 40.7%
[19]
  viability, T/C: 32.7%
[20]
  viability, T/C: 31.9%
[47]
  outcome: inactive
[48]
  outcome: inactive
[49]
  viability, T/C: 44%
[50]
  outcome: inactive
[25]
  viability, T/C: 37.3%
[26]
  viability, T/C: 33.5%

## CC1COCCN1c1cc(-c2ccnn2C)c2ccnc(-c3ccn[nH]3)c2n1 (centres undefined)
Compound 0.1 µM
  viability, T/C: 16.4% [middle of 5 runs]
Compound 0.316 µM
  viability, T/C: 6.37% [middle of 5 runs]
Compound 1 µM
  viability, T/C: 5.03% [middle of 5 runs]
Compound 3.16 µM
  viability, T/C: 4.84% [middle of 5 runs]

## CC(=O)Nc1cccc(-n2c(=O)n(C3CC3)c(=O)c3c(Nc4ccc(I)cc4F)n(C)c(=O)c(C)c32)c1 + COc1cc2nc(C)nc(NC(C)c3cc(N)cc(C(F)(F)F)c3)c2cc1OC1CCOC1
Second compound 0.1 µM
  IC50: 3.71 nM
Second compound 0.316 µM
  IC50: 2.62 nM
Second compound 1 µM
  IC50: 2.12 nM
Second compound 3.16 µM
  IC50: 1.05 nM
Second compound 10 µM
  IC50: < 0.1 nM
Second compound 0.1 µM, first compound 0.0001 µM
  viability, T/C: 67.4%
[31]
  viability, T/C: 68.6%
[32]
  viability, T/C: 55.7%
[33]
  viability, T/C: 48.5%
[34]
  viability, T/C: 46.1%
[1]
  viability, T/C: 25.5%
Second compound 0.316 µM, first compound 0.0001 µM
  viability, T/C: 74.9%
[35]
  viability, T/C: 63.1%
[36]
  viability, T/C: 54.5%
[37]
  viability, T/C: 50.9%
[38]
  viability, T/C: 43.2%
[7]
  viability, T/C: 26.8%
Second compound 1 µM, first compound 0.0001 µM
  viability, T/C: 64.6%
[39]
  viability, T/C: 67.3%
[40]
  viability, T/C: 52.3%
[41]
  viability, T/C: 44.3%
[42]
  viability, T/C: 40.8%
[13]
  viability, T/C: 22.9%
Second compound 3.16 µM, first compound 0.0001 µM
  viability, T/C: 56.5%
[43]
  viability, T/C: 52.6%
[44]
  viability, T/C: 47.9%
[45]
  viability, T/C: 44.1%
[46]
  viability, T/C: 40%
[19]
  viability, T/C: 22.4%
Second compound 10 µM, first compound 0.0001 µM
  viability, T/C: 48.1%
[47]
  viability, T/C: 37.7%
[48]
  viability, T/C: 38.4%
[49]
  viability, T/C: 29.8%
[50]
  viability, T/C: 31.1%
[25]
  viability, T/C: 18.3%
